From article PMC12392461, “Beyond Estrogenicity: A Comparative Assessment of Bisphenol A and Its Alternatives in In Vitro Assays Questions Safety of Replacements” (Environmental Science & Technology, 2025)
Where two headings read alike, the source gives them in different places.

Key:
[1] = tested on: Mitochondrial Membrane Potential; experiment: cells; details: for EC10, linear / logEC10: MMP bioassay, dosing range all; for EC10, linear: linear model; for logEC10: log-logistic model; for Specificity ratio (SRbaseline) SRMMP: against baseline cytotoxicity; for Relative effect potency REPMMP: relative to BPA
Source text: (§1) All bioassay media components and the ERα-UAS-bla GripTite and PPARγ-UAS-bla cells were obtained from Thermo Fisher Scientific (Waltham, MA, USA). AREc32 reporter gene cells based on MCF7 were provided by C. Roland Wolf (Cancer Research UK); AhR CALUX cells (H4L7.5c2 derived from H4IIe) were provided by Michael Denison (UC Davis, USA); and SH-SY5Y cells were purchased from Sigma-Aldrich.
(§2) Cell culture conditions and bioassay protocols including response detection are provided in Text S2.1–2.4 and Table S3. − Cell viability was determined from cell confluency using an IncuCyte S3 Live-Cell Analysis System (Sartorius AG, Essen, Germany) before and after exposure, except for SH-SY5Y cells (live–dead staining with Nuclear Green LcS1 and propidium iodide, Abcam, UK). For metabolic activation experiments, cell viability was assessed using the ToxBLAzer DualScreen Kit (Thermo Fisher Scientific) to capture the remaining toxicity in ERα-UAS-bla GripTite after treatment with the aCYP catalyst (details in Text S2.4).
(§3) For ARE, the concentration that triggered an induction ratio of 1.5 (ECIR1.5) was used as the benchmark value, as detailed in Text S2.5. IC10 values also served as a threshold for data analysis in all assays; only concentrations below IC10 were considered when deriving EC10 or ECIR1.5. […]
(§4) S2: Cell culture and bioassays
(§5) S2.1: Cell Culturing Conditions
All suppliers and sources are given in detail in SI-Excel S3. The bioassay media for the different assays were prepared as follows: Assay medium for ER alpha-UAS-bla GripTite (ERα) and […]
2% charcoal-stripped FBS, and 100 U/mL penicillin-streptomycin. MitoOxTox and AhR assay medium was comprised of 90% DMEM with GlutaMAX, supplemented with 10% FBS, and 100 U/mL penicillin-streptomycin. […]
S2.2: Cell Seeding and Incubation. For all bioassays, cell suspensions in the respective assay medium were dispensed into each well of 384-well plates using a MultiFlo Dispenser (Biotek, (now Agilent), Winooski, VT, U.S.). After seeding, the plates were incubated at 37° C and 5% CO₂ for […]. The final cell densities and plate types were as follows: Black poly-D-lysine […]
(§6) 6500 cells/well, ERα: 5000 cells/well. White 384-well plates with a clear bottom (Product No.
NYC, U.S.) for AhR: 3250 cells/well. Black Collagen I coated plates were used (Product No.
S2.3: Chemical Dosing and Assay Analysis Procedures. The dosing procedure and high-throughput assay workflow have been described in detail before. 9 The dosing concentrations […]
Stock solutions were then either

[2] = tested on: Antioxidant response element; experiment: MitoOxTox: oxidative stress response in AREc32; details: for EC10, linear / logEC10: Bioassay ARE, dosing range all; for EC10, linear: linear model fit; for logEC10: log-logistic model fit; for EC10: Arec32, read-out: EC10, linear transformed
Source text: as §1, §2, §3, §4, §5
All suppliers and sources are given in detail in SI-Excel S3. The bioassay media for the different assays were prepared as follows: Assay medium for ER alpha-UAS-bla GripTite (ERα) and PPAR gamma-UAS-bla 293H (PPARγ) was prepared with 98% Opti-MEM, supplemented with 2% charcoal-stripped FBS, and 100 U/mL penicillin-streptomycin. MitoOxTox and AhR assay medium was comprised of 90% DMEM with GlutaMAX, supplemented with 10% FBS, and 100 U/mL penicillin-streptomycin. Neurotoxicity assay medium consisted of the neurobasal […]
(1 picture or pasted object on this page, not shown here) […]
medium, supplemented with 2% B-27 Supplement and 2 mM GlutaMAX Supplement. SH - SY5Y cells were differentiated with 10 µM all-trans retinoic acid prior to the assay.
S2.2: Cell Seeding and Incubation. For all bioassays, cell suspensions in the respective assay medium were dispensed into each well of 384-well plates using a MultiFlo Dispenser (Biotek, (now Agilent), Winooski, VT, U.S.). After seeding, the plates were incubated at 37° C and 5% CO₂ for […]. The final cell densities and plate types were as follows: Black poly-D-lysine coated 384-well plates (Product No. 354663, Corning Inc., NYC, U.S.) were used for PPARγ:
as §6
781098, Greiner, Kremsmünster, Austria) were utilized for the MitoOxTox assay: 2650

[3] = tested on: ERα-UAS-bla GripTite cells
Procedure: as §2, with “S2.4). […]” for “S2.4).”
The TK-Ratio method was used to evaluate the impact of abiotic CYP oxidation on the potency of tested compounds. […]
For experiments with the preceding aCYP activation, ERα cell viability was additionally calculated from the readout of the ToxBLAzer reagent. The ToxBLAzer assay was conducted following the manufacturer's instructions (Thermo Fisher, Waltham, MA, U.S.).13 Fluorescence intensity was recorded at the start of the assay ( Fwavelength(0h)) and after a 2-hour incubation at […]
eq. S11 for normalization.
Cell viability = F665nm(2h, sample)-F665nm(0h, average cell-free) (S11) F665nm(2h, average unexposed)-F665nm(0h, average cell-free) […]
the specific endpoint to avoid artifacts from cytotoxicity burst. 15
S2.5: Concentration-response curves (CRCs)
To avoid bias from cytotoxicity burst at higher concentrations, all concentrations exceeding the IC10 for cytotoxicity were excluded in the CRC modeling of effects but otherwise cytotoxicity and effects were fitted with the same model equations (response stands for cytotoxicity or effect). For ERα, AhR, ARE and PPARγ preferably a linear model was fitted to the linear portion of CRC up to maximum 30% effect (eq. S12),16 but in some cases it was necessary to choose a sigmoidal log-concentration-response model, specifically a log-logistic model (eq. S13), to derive effect concentrations and cytotoxicity. […]
This was done using the
AutomatedBioassayScreening19 published by Braun et al.,20 which also included an algorithm to choose the best model between eq. S12 and eq. S13.
Response (%) = slope × C (S12) […]
logEC =logEC − 1 ∙log (max−min − 100%) (S14)

[4] = Arec32, read-out: EC10, MMP (M)
[5] = Arec32, read-out: EC10, linear transformed
[6] = Table S10, TKcytotoxicity-Ratio
[7] = Table S11, TKcytotoxicity-Ratio
[8] = against experimental cytotoxicity

Row | SMILES | EC10, linear [2] | logEC10 [2] | EC10 ([1]; Arec32, read-out: EC10, MMP) [M] | EC10 [1, 4] [M] | EC10 ([1]; Arec32, read-out: EC10, linear) [M] | EC10 [1, 5] [M] | EC10 ([1]; Arec32, read-out: logEC10) [M] | Specificity ratio (SRbaseline) SRMMP [1] | Relative effect potency REPMMP [1] | TKcytotoxicity [3, 6] | also measured
1 | CC1(C)C(O)C(C)(C)C1O (racemic) [r-TMCD, 2,2,4,4-Tetramethyl-1,3-cyclobutanediol (racemate)] | no effect | no effect |  |  |  |  |  |  |  |  | EC10, linear [1]: no effect; logEC10 [1]: no effect
2 | O=S(=O)(c1ccc(O)cc1)c1ccccc1O [2,4-BPS, 2,4'-Dihydroxydiphenyl sulfone] | no effect | no effect | 5.9e-05 | 5.9e-05 | 4.26e-05 | 5.93e-05 | 5.89e-05 | 11.47 | 0.47 |  | Specificity ratio (SRcytotoxicity) SRMMP ([1]; human, 24 h): 14.98; TKcytotoxicity ([3]; human): 1.61; EC10 [2]: 88700 µM
3 | CC(C)(c1ccc(OCC2CO2)cc1)c1ccc(OCC2CO2)cc1 (centres unmarked) [BADGE, Bisphenol A diglycidyl ether] | no effect | no effect |  |  |  | 9.1e-05 |  |  |  |  | EC10, linear [1]: no effect; logEC10 [1]: no effect; oxidative stress response (ARE activation) [2]: lacked any oxidative stress response
4 | CC(C)CC(C)(c1ccc(O)cc1)c1ccc(O)cc1 [BP-MIBK, 4,4'-(1,3-Dimethylbutylidene)diphenol] | no effect | no effect | 1.14e-05 | 1.14e-05 | 7.7e-06 | 1.12e-05 | 1.15e-05 |  |  |  | TKcytotoxicity ([3]; human): 0.48
5 | CC(C)(c1ccc(O)cc1)c1ccc(O)cc1 [BPA, 4,4'-(Propane-2,2-diyl)diphenol, reference compound] | no effect | masked by cytotoxicity | 2.8e-05 | 2.8e-05 | 2.1e-05 | 2.79e-05 | 2.82e-05 | 0.92 | 1.00 | 1.13 | EC10 (MMP inhibition) [1]: 28 µM; Specificity ratio (SRcytotoxicity) SRMMP ([1]; human, 24 h): 2.92; log(1/EC10) MMP ([1]; input of the ToxPi score, values up to 1.00): 0.71; SR (MMP inhibition) ([1]; specificity ratio): 3; TKcytotoxicity (TK-Ratio for cytotoxicity) ([3]; IC10 before/after aCYP oxidation): ≤ 2; TKcytotoxicity [3, 7]: 0.63; oxidative stress response (ARE activation) [2]: did not induce ARE; EC10 [2]: 1510 µM
6 | Oc1ccc(C(c2ccc(O)cc2)(C(F)(F)F)C(F)(F)F)cc1 [BPAF, 4,4'-(1,1,1,3,3,3-Hexafluoropropane-2,2-diyl)diphenol] | no effect | no effect | 5.32e-06 | 5.32e-06 | 3.05e-06 | 5.27e-06 | 5.37e-06 |  |  | 1.14 | 
7 | CC(c1ccccc1)(c1ccc(O)cc1)c1ccc(O)cc1 [BPAP, 4,4'-(1-Phenylethylidene)bisphenol] | no effect | no effect |  |  |  | 2.84e-05 |  |  |  |  | EC10, linear [1]: no effect; logEC10 [1]: no effect; TKcytotoxicity [3, 7]: 0.76
8 | CCC(C)(c1ccc(O)cc1)c1ccc(O)cc1 [BPB, 4,4'-(Butane-2,2-diyl)diphenol] | no effect | no effect | 1.64e-05 | 1.64e-05 | 9.79e-06 | 1.62e-05 | 1.62e-05 | 1.33 | 1.71 | 0.24 | Specificity ratio (SRcytotoxicity) SRMMP [1, 8]: 2.14
9 | CC(c1ccc(O)cc1)c1ccc(O)cc1 [BPE, 4,4′-Ethylidenbisphenol] | no effect | masked by cytotoxicity | 3.21e-05 | 3.21e-05 |  | 3.01e-05 | 3.24e-05 |  |  | 0.63 | EC10, linear [1]: no effect; EC10 [2]: 3720 µM
10 | Oc1ccc(Cc2ccc(O)cc2)cc1 [BPF, Bis(4-hydroxyphenyl)methane] | no effect | masked by cytotoxicity |  |  | 0.000167 | 0.000167 | 0.000166 |  |  | 0.75 | TKcytotoxicity [3, 7]: 0.44; EC10 [2]: 1470 µM
11 | CC(C)c1cc(C(C)(C)c2ccc(O)c(C(C)C)c2)ccc1O [BPG, 2,2-Bis(4-hydroxy-3-isopropylphenyl)propane] | no effect | no effect | 3.12e-06 | 3.12e-06 | 2.65e-06 | 3.08e-06 | 3.09e-06 | 1.70 | 8.97 | 0.62 | Specificity ratio (SRcytotoxicity) SRMMP [1, 8]: 2.79; TKcytotoxicity [3, 7]: 0.67
12 | O=S(=O)(c1ccc(O)cc1)c1ccc(O)cc1 [BPS, 4,4'-Sulfonyldiphenol] | no effect | no effect | 0.000117 | 0.000117 | 7.55e-05 | 0.000118 | 0.000117 |  |  |  | 
13 | Oc1ccc(C2(c3ccc(O)cc3)CCCCC2)cc1 [BPZ, 1,1'-Bis(4-hydroxyphenyl)cyclohexane] |  |  | 2.21e-05 | 2.21e-05 | 1.31e-05 | 2.39e-05 | 2.19e-05 |  |  | 0.53 | 
14 | CC1(C)[C@H](O)C(C)(C)[C@H]1O [Trans TMCD] | no effect | no effect |  |  | 0.0141 | 0.0185 | 0.0186 |  |  |  | 
15 | CC1(C)[C@H](O)C(C)(C)[C@H]1O [t-TMCD, trans-2,2,4,4-Tetramethyl-1,3-cyclobutanediol] |  |  | 0.0185 | 0.0185 |  |  |  | 0.0554 | 0.00152 | 1.74 | 
